Data on one compound can be found in patent US5656603A (Loyola University of Chicago, priority 1995, dated 1997).

As usually defined, the IC50 is the concentration that inhibits the measured activity by half.

Test [1] has as its target T1, partially purified human lung membrane-bound aminopeptidase P (Homo sapiens, UniProt O43895).
T1 construct: from tissue; host or cells: human lung microsomes
The test is described as follows: Aminopeptidase P inhibition, release of arginine from Arg-Pro-Pro (fluorescent assay). In kind it is biochemical. The protocol:
The IC50 of the compound of the present invention in relation to aminopeptidase P was also determined. […] The specificity of the compound of the present invention for other aminopeptidases was similarly determined as described in the Experimental Procedures herein.
Enzymes--Membrane-bound aminopeptidase P was purified to homogeneity from bovine lung (14) and from rat lung. Partially purified membrane-bound aminopeptidase P from human lung was obtained by treatment of lung microsomes with phosphatidylinositol-specific phospholipase C (B. thuringiensis) (ICN, Costa Mesa, Calif.) followed by centrifugation as described previously (14). Membrane dipeptidase was purified from rat lung microsomes (manuscript in preparation). Recombinant E. coli aminopeptidase P (22) and purified lamb kidney prolyl oligopeptidase (23) were generally supplied by Dr. Tadashi Yoshimoto (Nagasaki University). Purified porcine kidney prolidase and purified porcine kidney aminopeptidase M was obtained from Sigma (St. Louis, Mo.).
Enzyme Kinetics--Aminopeptidase P activity was determined by measuring the release of arginine from Arg-Pro-Pro by a fluorescent assay described previously (14). […] Each mixture was run in duplicate. Aliquots were removed from each incubation mixture at various times and assayed for the amount of arginine present to determine the reaction velocity. In general, reaction velocities were calculated from data representing less than 20% cleavage of substrate. Ki and Ki ' (=αKi) were determined from plots of 1/v versus concentration of inhibitor "i" (26) and S/v versus concentration of inhibitor "i" (27), respectively. These parameters were also determined from the slope replot and 1/v-intercept replot, respectively, of the 1/v versus 1/S plot (28). […] The values from the two treatments of the data were averaged for each experiment. Experiments for each enzyme preparation were performed twice and the results averaged.

In another test the target is T2, endopeptidase 24.11 (Bos taurus, UniProt E1BPL8).
T2 construct: Unless otherwise indicated, the source of each enzyme activity was a detergent extract of bovine lung; from tissue; host or cells: detergent extract of bovine lung
T2 sequence (E1BPL8 1-750): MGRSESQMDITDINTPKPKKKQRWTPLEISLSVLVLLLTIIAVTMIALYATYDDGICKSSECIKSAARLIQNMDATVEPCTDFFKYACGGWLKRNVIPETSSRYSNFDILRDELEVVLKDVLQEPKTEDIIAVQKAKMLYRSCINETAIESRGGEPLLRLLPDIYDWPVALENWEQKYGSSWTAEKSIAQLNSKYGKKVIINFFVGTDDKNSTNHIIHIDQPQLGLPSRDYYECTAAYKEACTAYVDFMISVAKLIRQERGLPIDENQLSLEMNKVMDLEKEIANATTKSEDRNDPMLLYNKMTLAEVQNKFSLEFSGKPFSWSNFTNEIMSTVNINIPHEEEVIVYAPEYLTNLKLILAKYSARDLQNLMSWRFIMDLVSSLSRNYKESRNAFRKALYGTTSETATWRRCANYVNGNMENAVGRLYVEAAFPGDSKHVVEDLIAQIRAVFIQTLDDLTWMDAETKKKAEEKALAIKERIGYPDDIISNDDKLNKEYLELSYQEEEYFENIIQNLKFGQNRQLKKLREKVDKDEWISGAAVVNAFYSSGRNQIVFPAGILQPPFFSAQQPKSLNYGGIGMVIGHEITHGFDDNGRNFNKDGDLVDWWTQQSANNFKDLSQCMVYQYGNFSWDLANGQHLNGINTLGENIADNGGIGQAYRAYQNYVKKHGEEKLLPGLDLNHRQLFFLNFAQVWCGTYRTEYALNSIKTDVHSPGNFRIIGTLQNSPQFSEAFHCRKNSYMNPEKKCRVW
The test is described as follows: Specificity of apstatin: endopeptidase 24.11. In kind it is biochemical. To be noted: detergent extract of bovine lung; Suc-Ala-Ala-Phe-7-amido-4-methyl-coumarin, pH 6.8, HPLC-1. As for the experimental part: Specificity of Apstatin--Apstatin was assayed for its ability to inhibit several other peptidases. […] Unless otherwise indicated, the source of each enzyme activity was a detergent extract of bovine lung prepared as described in (12-13). Activities were determined by a modification of the fluorescent assay described above (indicated by "FLUO") or by HPLC separation and quantitation of reaction products using the method described in (12) (method "HPLC-1") or the method described below (method "HPLC-2"). […]

SMILES strings stand for the structures. Bounds are passed on as bounds.

T1 sequence (O43895 22-674): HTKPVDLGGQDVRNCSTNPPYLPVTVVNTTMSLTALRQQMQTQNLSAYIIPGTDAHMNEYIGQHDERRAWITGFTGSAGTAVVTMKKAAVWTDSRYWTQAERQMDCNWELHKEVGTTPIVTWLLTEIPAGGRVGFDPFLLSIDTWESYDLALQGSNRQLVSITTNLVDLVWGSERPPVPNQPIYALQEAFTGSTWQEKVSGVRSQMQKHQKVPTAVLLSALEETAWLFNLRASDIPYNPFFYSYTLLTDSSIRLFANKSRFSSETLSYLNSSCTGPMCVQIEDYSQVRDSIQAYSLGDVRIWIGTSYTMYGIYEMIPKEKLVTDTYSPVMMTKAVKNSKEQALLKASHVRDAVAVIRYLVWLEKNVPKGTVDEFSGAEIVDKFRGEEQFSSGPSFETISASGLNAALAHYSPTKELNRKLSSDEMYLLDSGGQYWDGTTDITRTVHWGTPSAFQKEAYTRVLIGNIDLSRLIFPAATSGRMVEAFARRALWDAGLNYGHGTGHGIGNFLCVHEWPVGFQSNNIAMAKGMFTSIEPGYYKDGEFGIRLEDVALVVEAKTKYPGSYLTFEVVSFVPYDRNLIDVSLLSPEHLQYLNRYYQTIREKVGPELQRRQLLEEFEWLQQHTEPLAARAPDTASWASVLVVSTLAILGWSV

On to `C[C@H](NC(=O)[C@@H]1CCCN1C(=O)[C@@H]1CCCN1C(=O)[C@@H](O)[C@H](N)Cc1ccccc1)C(N)=O` [apstatin, N-[(2S, 3R)-3-amino-2-hydroxy-4-phenylbutanoyl]-L-prolyl-L-prolyl-Lalaninamide], for which the type of inhibition entry in test [1] (human lung aminopeptidase P) is on record as “linear mixed-type”. In addition, the “α (αKi = equilibrium constant for enzyme-inhibitor binding at infinite substrate concentration)” value in test [1] (human lung, partially purified membrane-bound form) amounted to 11. The same compound had an IC50 against endopeptidase 24.11 above 800 µM.
